Laboratory results published in patent US9981037B2, “Combination therapy of beta-glycolipids and antibodies for the treatment of immune-related disorders” (HADASIT MEDICAL RESEARCH SERVICES AND DEVELOPMENT LTD., priority 2008, dated 2018).

Legend:
[1] = test system: DCs from MLN; test: TGF-β and IL-10 expression in CD11C+ DCs from MLN by RT PCR; type: in vivo, mice; details: RT PCR relative to GAPDH; 3 days after feeding; reversed by anti-TGF-β
Procedure: MLN CD11C+ DCs were isolated by magnetic separation using anti CD11C microbeads (Miltenyi Biotec). Total RNA was isolated from cell pellets using the RNA easy Mini Kit (QIAGEN) and stored at −80° C. First strand cDNA synthesis was performed on 0.5-1 μg of total RNA for each RNA sample using Taqman reverse transcription reagents. The cDNA was amplified using sequence specific primers for IL-10, and TGF-β and real-time PCR mix (Applied Biosystems) in an ABI7500 cycler. The GAPDH gene was used as an endogenous control to normalize for differences in the amount of total RNA in each sample. All values were expressed as a fold increase or decrease relative to the expression of GAPDH.
To investigate the effect of feeding the anti-CD3 plus GC combination on DCs, the inventors first measured the expression of TGF-β and IL-10 in DCs from MLN. […] Injection of anti-TGF-β reversed the effect. The inventors then investigated the effect of DCs obtained from animals treated with the oral combination of anti-CD3 plus GC, or from the control PBS treated animals, on T-cells harvested from mice fed either with PBS or with the combination of anti-CD3 plus GC. T cells were stimulated with anti-CD3 in vitro. […]

[2] = test system: MLN cells; test: Cytokine production (ELISA) by MLN cells or splenocytes of fed ob/ob mice stimulated in vitro with anti-CD3; type: in vivo; details: in vitro 1 μg/ml anti-CD3 stimulation; vs PBS
Procedure: For cytokine assays, splenocytes or MLN cells were grown (10^6 cells per well) in serum-free medium X-VIVO 20 (BioWhittaker) with 1 ug/ml soluble anti-CD3 antibody. Supernatants were collected after 40 h for IL-2, IL-4, IL6, IL-10, IFN-γ, and IL-17, or after 72 h for TGF-β and quantitative ELISA was performed using paired antibodies and recombinant cytokines obtained from PharMingen according to their recommendations. When purified T-cells ([…] cells per well) were checked for cytokine secretion, they were stimulated with 1 ug/ml anti-CD3 in the presence of DCs (10×10^3 cells per well) for 40 or 72 h and the cytokine content in the supernatant was measured as outlined above. The tissue cytokine profile was determined for gut, liver, and pancreas. Part of the organ was weighed and homogenized on ice with TISSUEMISER (Fisher Scientific) in buffer containing PBS/BSA/TWEEN and protein inhibitor tablets (Roche). […]
To investigate the potential mechanisms by which oral combination of anti-CD3 plus GC affected the metabolic abnormalities describe above, the inventors next measured cytokine production by MLN cells obtained from the different experimental groups, that were then stimulated in vitro with 1 μg/ml anti-CD3 for five days. […] The inventors next measured cytokine levels in supernatants from homogenized tissues from ob/ob treated mice. […]

[3] = test system: ob/ob mice; test: Metabolic syndrome model in ob/ob mice: serum glucose, AST, ALT, cholesterol, weight after oral feeding; type: in vivo
Procedure: Mice were fed a total volume of 0.2 ml by gastric intubation with an 18-gauge stainless steel feeding needle (Thomas Scientific). Mice were fed once a day for five consecutive days with either phosphate-buffered saline (PBS), hamster isotype control (IC 5 μg/feeding), anti CD3 antibody (5 ug/feeding), or β-glucosylceramide (GC), 100 μg/feeding (dissolved in ethanol and emulsified in PBS). Mice fed with the combination of anti-CD3 and GC received 5 ug anti-CD3 and 100 ug GC in 0.2 ml PBS. Mice were injected IP with 100 μg anti TGF-β one day before the feeding and than on alternative days another 4 injections, a total of 500 μg.
Sera from individual mice were obtained. Serum AST and ALT levels were measured by an automatic analyzer.
In order to investigate the potential effect of combining two different immune-modulatory compounds on an immune-related disorder such as the metabolic syndrome, the ob/ob leptin deficient mice that manifest insulin resistance, hypelipidemia, fatty liver, and diabetes, were used as an animal model.
Four groups of ob/ob mice were tested, groups 1 and 2 served as control groups (group of untreated mice and group of mice treated with GC and Isotype Control, respectively), group 3 were treated with anti CD3 (5 microgram) antibody and group 4 were orally administered with a combination of anti-CD3 (5 μg) antibody and β-glucosylceramide (GC, 100 μg) per dose for five consecutive days. Animals were assessed on days 10 and 28. The doses studied were based on previous studies of anti-CD3 and GC in animal models [Ochi, H., et al. Nat. Med. 12:627-635 (2006); Zigmond, E. et al. Gut 56:82-89 (2007); Ilan, Y. et al. Transplantation 83:458-467 (2007)]. Determination of hepatic fat content and inflammation was performed by measurement of serum Alanine aminotransferase (ALT) and Aspartate aminotransferase (AST) levels. Serum glucose and cholesterol levels were also assessed.

[4] = test system: ob/ob mice; test: Pathologic analysis of pancreas, liver and muscle of ob/ob mice; type: in vivo; details: vs PBS
Procedure: The liver, pancreas, and muscle were removed from control or treated mice and placed in 4% formalin followed by paraffin embedding. Five sections were prepared from each organ. The tissues were stained for heamtoxylin eosin and liver sections were additionally stained with oil-red-o. All sections were blindly scored by a pathologist.
The inventors next investigated the beneficial effect of the combined oral composition of anti-CD3 plus GC treatment of ob/ob mice by pathologic analysis of pancreas, liver and muscle. […] In addition, a reversal of muscle fiber thinning and increased nuclei was clearly observed in animals treated with the oral combination of anti-CD3 plus GC.

β-glucosylceramide [GC]
IL-10 expression in DCs from MLN [1]: not | TGF-β expression in DCs from MLN [1]: not | production of IL-10 by MLN cells [2]: No effects | production of TGF-β by MLN cells [2]: No effects | weight of animals ([3]; compared to control): No change | serum AST levels ([3]; ob/ob mice fed daily for 5 days, 10 days after last feeding, PBS 416 U/l): 310 U/l | Serum cholesterol levels ([3]; ob/ob mice fed daily for 5 days, PBS 218 mg %): 225 mg % | blood glucose ([3]; ob/ob mice fed daily for 5 days, tested 10 days after last feeding, PBS 367 mg %): 337 mg % | hepatic fat accumulation [4]: some effect | pancreatic hyperplasia [4]: some effect
